Experimental data taken from patent US9180160B2, “Complement inhibitors for treatment of injury from intracerebral hemorrhage” (The Trustees of the University of Pennsylvania, priority 2008, dated 2015).
Values joined by “and” are separate entries in the source; they are usually repeats but may differ in a detail not shown here. Equal values may be shown once. “Also recorded” adds a separate entry of the source.

What was measured:
[1] = tested on: C57BL/6J mice subjected to ICH; assay: Brain water content (edema) after ICH; format: in vivo; details: for brain water content versus vehicle: 1 mg/kg i.p. first at 6 h and 12 h after ICH
Procedure: (§1) Animal Preparation and Intracerebral Infusion. Adult male C57BL/6J mice weighing 23-30 g were used. Mice were randomized to receive intraperitoneal injection of either C3aRA (1 mg/kg) (SB290157, Calbiochem, Darmstadt, Germany) diluted in PBS and DMSO (1.16% v/v), or an equal volume of vehicle (PBS and DMSO, 1.16% DMSO v/v) either 45 minutes prior to ICH induction or 6 and 12 hours after induction of ICH, followed in both cohorts by twice daily doses for 72 hours. […] Sham animals were given PBS and DMSO (1.16% v/v) in the same manner.
(§2) Mice were anesthetized with a single intraperitoneal dose of ketamine (90 mg/kg) and xylazine (5 mg/kg). Next, the mice were placed in a stereotactic frame (ASI Instruments, Inc., Warren, Mich., USA) and subjected to ICH using autologous blood infusion as previously described (Rynkowski M A et al, 2008, Nat Protoc 3: 122-128), Briefly, a 1-mm burr hole was drilled 2.3 mm lateral to the midline and 0.2 mm anterior to the bregma. Thirty μL of autologous whole blood were drawn from the tail artery into a capillary tube. A 30-gauge needle was then advanced stereotactically through the burr hole into the right striatum (coordinates: 0.2 mm anterior, 2.3 mm lateral to the bregma, 3.5 mm ventral). Using a microinfusion pump (KDS220, KD Scientific Inc., Holliston, Mass., USA), 5 μL was delivered at a rate of 1.5 μL per minute. After a 7-minute period, an additional 25 μL was delivered at a constant rate of 1.5 μL per minute. After a period of 10 minutes, the needle was slowly removed, the burr hole was occluded with bone wax and the skin incision was closed with Nexaband® (Abbott Laboratories, North Chicago, Ill.). Sham animals received only needle insertion. Rectal temperature was maintained at 37.0° C. using a feedback-controlled heating lamp, and the animals recovered in a temperature-controlled incubator for 45 minutes post-procedure.
Determination of brain water content. Mice were reanesthetized with Ketamine (80-100 mg/kg i.p.), Xylazine (5-10 mg/kg i.p.) and sacrificed 3 days post-hemorrhage to determine brain water content (sham vehicle n=8 Pre-C3aRA n=8, Post-C3aRA n=11). Brains were removed immediately en bloc and five 2-mm coronal slices were obtained beginning 2-mm from the frontal pole. The brain slices were divided into two hemispheres along the midline. The cortex of each hemisphere was then carefully dissected from the basal ganglia. The cerebellum was retained as a control. Each of the five sections was then weighed on an electronic analytical balance (Model AG 104, Mettler-Toledo, Inc., Columbus, Ohio, USA) to determine the wet weight. The sections were then placed onto pre-weighed cover slips and dried overnight in a vacuum oven for 24 hours to obtain the dry weight. Brain water content (%) was calculated as: ((wet weight-dry weight)/wet weight)×100.
Animal Preparation and Intracerebral Infusion. Adult male C57BL/6J mice weighing 23-30 g were randomized to receive intraperitoneal injection of either C3aRA (1 mg/kg) (SB290157, Calbiochem, Darmstadt, Germany), C5aRA (1 mg/kg), combined C3aRA and C5aRA or an equal volume of DMSO. Each drug was diluted in PBS (1.16% v/v) and given 6 and 12 hours after ICH induction, followed by twice daily doses for 72 hours. The sham group of animals was given PBS and DMSO (1.16% v/v) in the same manner. Mice were anesthetized with a single intraperitoneal dose of ketamine (90 mg/kg) and xylazine (5 mg/kg). […]

[2] = tested on: C57BL/6J mice subjected to ICH; assay: Flow cytometric analysis of granulocyte infiltration and microglial activation after ICH; format: in vivo; details: then twice daily, mean±SEM
Procedure: as §1
as §2, with “Rectal temperature was maintained at 37.0° C. using a feedback-controlled heating lamp, and the animals recovered in a temperature-controlled incubator for 45 minutes post-procedure.” left out
Preparation of brains. Both cerebral hemispheres were analyzed for inflammatory cells using flow cytometry. […]
Flow cytometric analysis. […] Flow cytometric analysis was carried out using a FACSCalibur (BD Biosciences, Franklin Lakes, N.J., USA), and the data were analyzed using FlowJo software (Tree Star, Ashland, Oreg., USA). […]

[3] = then twice daily, 72 hours after ICH
[4] = 1 mg/kg i.p. 45 minutes prior to ICH, then twice daily, 72 hours after ICH, mean±SEM
[5] = 1 mg/kg i.p. 45 minutes prior to ICH, 72 hours after ICH

Molecule | brain water content versus vehicle [1, 3] | granulocyte infiltration, hemorrhagic/non-hemorrhagic ratio ([2]; 1 mg/kg i.p. first at 6 h and 12 h after ICH, 3 days after ICH) | brain water content, ipsilateral basal ganglia [1, 4] | brain water content, ipsilateral cortex [1, 4] | water content in the contralateral cortex, the basal ganglia and cerebellum ([1]; pre-ICH dosing 1 mg/kg i.p., 72 hours, versus vehicle-treated and sham) | activated microglia, hemorrhagic/non-hemorrhagic hemisphere ratio [2, 5] | granulocytes, hemorrhagic/non-hemorrhagic hemisphere ratio [2, 5]
Acetyl-Phe-[Orn-Pro-D-cyclohexylalanine-Trp-Arg] [C5aRA] | mildly decreased brain water content | 1.7793±0.36 | – | – | – | – | –
NC(N)=NCCC[C@H](NC(=O)COCC(c1ccccc1)c1ccccc1)C(=O)O [C3aRA] | mildly decreased brain water content; also recorded: Trend towards decreased edema | – | 77.43±0.43% | 77.56±0.26% and 77.57±0.26% | not different | 3.67±0.45 | 3.21±0.52
